In PubChem BioAssay (NCI):
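Five concentrations, 48 hours, 96-well plates. Definition used: TGI = concentration required for complete inhibition of growth.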

Experiments:
Test in all cases: NCI tumour cell line growth inhibition, 48 h
SNB-75 CNS = test system: SNB-75 CNS
K-562 leukemia = test system: K-562 leukemia
NCI-H522 lung = test system: NCI-H522 lung
NCI-H226 lung = test system: NCI-H226 lung
786-0 renal = test system: 786-0 renal
A549 NSCLC = test system: A549 NSCLC
HCT-15 colon = test system: HCT-15 colon
PC-3 prostate = test system: PC-3 prostate
NCI-H23 lung = test system: NCI-H23 lung
CAKI-1 renal = test system: CAKI-1 renal
MCF7 breast = test system: MCF7 breast
OVCAR-5 ovarian = test system: OVCAR-5 ovarian
COLO 205 colon = test system: COLO 205 colon
KM12 colon = test system: KM12 colon
SK-MEL-28 melanoma = test system: SK-MEL-28 melanoma
U251 CNS = test system: U251 CNS
MALME-3M melanoma = test system: MALME-3M melanoma
HCT-116 colon = test system: HCT-116 colon
SK-MEL-5 melanoma = test system: SK-MEL-5 melanoma
MDA-MB-435 = test system: MDA-MB-435
NCI/ADR-RES ovarian = test system: NCI/ADR-RES ovarian
SW-620 colon = test system: SW-620 colon
IGROV1 ovarian = test system: IGROV1 ovarian
OVCAR-4 ovarian = test system: OVCAR-4 ovarian
HS 578T breast = test system: HS 578T breast
MDA-MB-231 breast = test system: MDA-MB-231 breast
SF-539 CNS = test system: SF-539 CNS
BT-549 breast = test system: BT-549 breast
NCI-H460 lung = test system: NCI-H460 lung
UACC-257 melanoma = test system: UACC-257 melanoma
HCC-2998 colon = test system: HCC-2998 colon
OVCAR-8 ovarian = test system: OVCAR-8 ovarian
HL-60(TB) leukemia = test system: HL-60(TB) leukemia
HOP-92 NSCLC = test system: HOP-92 NSCLC
ACHN renal = test system: ACHN renal
SNB-19 CNS = test system: SNB-19 CNS
SK-OV-3 ovarian = test system: SK-OV-3 ovarian
EKVX NSCLC = test system: EKVX NSCLC
A498 renal = test system: A498 renal
SK-MEL-2 melanoma = test system: SK-MEL-2 melanoma
SN12C renal = test system: SN12C renal
SF-295 CNS = test system: SF-295 CNS
MDA-N = test system: MDA-N
SR leukemia = test system: SR leukemia
SF-268 CNS = test system: SF-268 CNS
CCRF-CEM leukemia = test system: CCRF-CEM leukemia
LOX IMVI melanoma = test system: LOX IMVI melanoma
UACC-62 melanoma = test system: UACC-62 melanoma
DU-145 prostate = test system: DU-145 prostate
HT29 colon = test system: HT29 colon
TK-10 renal = test system: TK-10 renal
RXF 393 renal = test system: RXF 393 renal
M14 melanoma = test system: M14 melanoma
HOP-62 NSCLC = test system: HOP-62 NSCLC
UO-31 renal = test system: UO-31 renal
OVCAR-3 ovarian = test system: OVCAR-3 ovarian
RPMI-8226 leukemia = test system: RPMI-8226 leukemia
MOLT-4 leukemia = test system: MOLT-4 leukemia

Compound: CCOP(=O)(OCC)/C(C#N)=C/c1cnc(C)[nH]1
- TGI (SNB-75 CNS): > 100 µM
- TGI (K-562 leukemia): > 100 µM
- TGI (NCI-H522 lung): > 100 µM
- TGI (NCI-H226 lung): > 100 µM
- TGI (786-0 renal): > 100 µM
- TGI (A549 NSCLC): > 100 µM
- TGI (HCT-15 colon): > 100 µM
- TGI (PC-3 prostate): > 100 µM
- TGI (NCI-H23 lung): > 100 µM
- TGI (CAKI-1 renal): > 100 µM
- TGI (MCF7 breast): > 100 µM
- TGI (OVCAR-5 ovarian): > 100 µM
- TGI (COLO 205 colon): > 100 µM
- TGI (KM12 colon): > 100 µM
- TGI (SK-MEL-28 melanoma): > 100 µM
- TGI (U251 CNS): > 100 µM
- TGI (MALME-3M melanoma): > 100 µM
- TGI (HCT-116 colon): > 100 µM
- TGI (SK-MEL-5 melanoma): > 100 µM
- TGI (MDA-MB-435): > 100 µM
- TGI (NCI/ADR-RES ovarian): > 100 µM
- TGI (SW-620 colon): > 100 µM
- TGI (IGROV1 ovarian): > 100 µM
- TGI (OVCAR-4 ovarian): > 100 µM
- TGI (HS 578T breast): > 100 µM
- TGI (MDA-MB-231 breast): > 100 µM
- TGI (SF-539 CNS): > 100 µM
- TGI (BT-549 breast): > 100 µM
- TGI (NCI-H460 lung): > 100 µM
- TGI (UACC-257 melanoma): > 100 µM
- TGI (HCC-2998 colon): > 100 µM
- TGI (OVCAR-8 ovarian): > 100 µM
- TGI (HL-60(TB) leukemia): > 100 µM
- TGI (HOP-92 NSCLC): > 100 µM
- TGI (ACHN renal): > 100 µM
- TGI (SNB-19 CNS): > 100 µM
- TGI (SK-OV-3 ovarian): > 100 µM
- TGI (EKVX NSCLC): > 100 µM
- TGI (A498 renal): > 100 µM
- TGI (SK-MEL-2 melanoma): > 100 µM
- TGI (SN12C renal): > 100 µM
- TGI (SF-295 CNS): > 100 µM
- TGI (MDA-N): > 100 µM
- TGI (SR leukemia): > 100 µM
- TGI (SF-268 CNS): > 100 µM
- TGI (CCRF-CEM leukemia): > 100 µM
- TGI (LOX IMVI melanoma): > 100 µM
- TGI (UACC-62 melanoma): > 100 µM
- TGI (DU-145 prostate): > 100 µM
- TGI (HT29 colon): > 100 µM
- TGI (TK-10 renal): > 100 µM
- TGI (RXF 393 renal): > 100 µM
- TGI (M14 melanoma): > 100 µM
- TGI (HOP-62 NSCLC): > 100 µM
- TGI (UO-31 renal): > 100 µM
- TGI (OVCAR-3 ovarian): > 100 µM
- TGI (RPMI-8226 leukemia): > 100 µM
- TGI (MOLT-4 leukemia): > 100 µM

Compound: CCCCNc1nc(N)nc(Nc2ccc(Br)cc2)c1N=O
- TGI (SNB-75 CNS): > 100 µM
- TGI (K-562 leukemia): > 100 µM
- TGI (NCI-H522 lung): > 100 µM
- TGI (NCI-H226 lung): > 100 µM
- TGI (786-0 renal): > 100 µM
- TGI (A549 NSCLC): > 100 µM
- TGI (HCT-15 colon): > 100 µM
- TGI (PC-3 prostate): > 100 µM
- TGI (NCI-H23 lung): > 100 µM
- TGI (MCF7 breast): > 100 µM
- TGI (OVCAR-5 ovarian): > 100 µM
- TGI (COLO 205 colon): > 100 µM
- TGI (KM12 colon): > 100 µM
- TGI (SK-MEL-28 melanoma): > 100 µM
- TGI (U251 CNS): > 100 µM
- TGI (MALME-3M melanoma): > 100 µM
- TGI (HCT-116 colon): > 100 µM
- TGI (SK-MEL-5 melanoma): > 100 µM
- TGI (MDA-MB-435): > 100 µM
- TGI (NCI/ADR-RES ovarian): > 100 µM
- TGI (SW-620 colon): > 100 µM
- TGI (IGROV1 ovarian): > 100 µM
- TGI (HS 578T breast): 82.8 µM
- TGI (MDA-MB-231 breast): > 100 µM
- TGI (SF-539 CNS): > 100 µM
- TGI (BT-549 breast): > 100 µM
- TGI (NCI-H460 lung): > 100 µM
- TGI (UACC-257 melanoma): > 100 µM
- TGI (HCC-2998 colon): > 100 µM
- TGI (OVCAR-8 ovarian): > 100 µM
- TGI (HL-60(TB) leukemia): > 100 µM
- TGI (ACHN renal): > 100 µM
- TGI (SNB-19 CNS): > 100 µM
- TGI (EKVX NSCLC): > 100 µM
- TGI (SK-MEL-2 melanoma): > 100 µM
- TGI (SN12C renal): > 100 µM
- TGI (MDA-N): > 100 µM
- TGI (SR leukemia): > 100 µM
- TGI (SF-268 CNS): > 100 µM
- TGI (CCRF-CEM leukemia): > 100 µM
- TGI (LOX IMVI melanoma): > 100 µM
- TGI (UACC-62 melanoma): > 100 µM
- TGI (DU-145 prostate): > 100 µM
- TGI (HT29 colon): > 100 µM
- TGI (TK-10 renal): > 100 µM
- TGI (RXF 393 renal): > 100 µM
- TGI (M14 melanoma): > 100 µM
- TGI (HOP-62 NSCLC): > 100 µM
- TGI (UO-31 renal): > 100 µM
- TGI (OVCAR-3 ovarian): > 100 µM
- TGI (RPMI-8226 leukemia): > 100 µM
- TGI (MOLT-4 leukemia): > 100 µM

Compound: NC(=O)N/N=C\c1ccccc1OCc1cccc(COc2ccccc2/C=N\NC(N)=O)n1
- TGI (K-562 leukemia): > 100 µM
- TGI (NCI-H522 lung): > 100 µM
- TGI (NCI-H226 lung): > 100 µM
- TGI (786-0 renal): > 100 µM
- TGI (A549 NSCLC): > 100 µM
- TGI (HCT-15 colon): > 100 µM
- TGI (PC-3 prostate): > 100 µM
- TGI (NCI-H23 lung): > 100 µM
- TGI (CAKI-1 renal): > 100 µM
- TGI (MCF7 breast): > 100 µM
- TGI (OVCAR-5 ovarian): > 100 µM
- TGI (COLO 205 colon): > 100 µM
- TGI (KM12 colon): > 100 µM
- TGI (SK-MEL-28 melanoma): > 100 µM
- TGI (U251 CNS): 18.7 µM
- TGI (MALME-3M melanoma): > 100 µM
- TGI (HCT-116 colon): > 100 µM
- TGI (SK-MEL-5 melanoma): > 100 µM
- TGI (MDA-MB-435): > 100 µM
- TGI (NCI/ADR-RES ovarian): > 100 µM
- TGI (SW-620 colon): > 100 µM
- TGI (IGROV1 ovarian): > 100 µM
- TGI (OVCAR-4 ovarian): > 100 µM
- TGI (HS 578T breast): > 100 µM
- TGI (MDA-MB-231 breast): 32.8 µM
- TGI (SF-539 CNS): 47.9 µM
- TGI (BT-549 breast): 81.8 µM
- TGI (NCI-H460 lung): > 100 µM
- TGI (UACC-257 melanoma): > 100 µM
- TGI (HCC-2998 colon): > 100 µM
- TGI (OVCAR-8 ovarian): > 100 µM
- TGI (HL-60(TB) leukemia): > 100 µM
- TGI (HOP-92 NSCLC): 55.6 µM
- TGI (ACHN renal): > 100 µM
- TGI (SNB-19 CNS): > 100 µM
- TGI (SK-OV-3 ovarian): 49.9 µM
- TGI (EKVX NSCLC): 69.5 µM
- TGI (A498 renal): > 100 µM
- TGI (SK-MEL-2 melanoma): > 100 µM
- TGI (SN12C renal): > 100 µM
- TGI (SF-295 CNS): 33.8 µM
- TGI (MDA-N): > 100 µM
- TGI (SF-268 CNS): 88.6 µM
- TGI (CCRF-CEM leukemia): > 100 µM
- TGI (LOX IMVI melanoma): > 100 µM
- TGI (UACC-62 melanoma): 51.6 µM
- TGI (DU-145 prostate): 47.7 µM
- TGI (HT29 colon): > 100 µM
- TGI (TK-10 renal): 85.6 µM
- TGI (RXF 393 renal): 31.5 µM
- TGI (M14 melanoma): > 100 µM
- TGI (HOP-62 NSCLC): 27 µM
- TGI (UO-31 renal): > 100 µM
- TGI (OVCAR-3 ovarian): > 100 µM
- TGI (RPMI-8226 leukemia): > 100 µM
- TGI (MOLT-4 leukemia): > 100 µM
